How the values were obtained:
RAW264.7 [1] = assay: Anti-inflammatory activity in mouse RAW264.7 cells assessed as inhibition of LPS-induced NO production preincubated for 1 hr followed by LPS stimulation and measured after 24 hrs by Griess reagent based assay; type: functional, cell-based
RAW264.7 [2] = assay: Cytotoxicity against mouse RAW264.7 cells assessed as reduction in cell viability by MTT assay; type: cell-based

Row | IC50 (RAW264.7 [1]) [µM] | Structure (SMILES) | Activity (RAW264.7 [2])
1 | 47.8 | C[C@@]12CCC[C@@](C)(C(=O)O)[C@H]1CC[C@]13C=C(CO)[C@H](CC[C@H]12)C3 | Non-Toxic
2 | 51.1 | C[C@@]12CCC[C@@](C)(C(=O)O)[C@H]1CC[C@]13C=C(C(=O)O)[C@H](CC[C@H]12)C3 | Non-Toxic
3 | 28.2 | CC(C)CC(=O)OC[C@@]1(O)C[C@@]23CC[C@H]4[C@@](C)(CCC[C@@]4(C)C(=O)O)[C@@H]2CC[C@@H]1C3 | Non-Toxic
4 | 10.2 | C=C[C@]1(C)C=C2CC[C@@H]3[C@](C)(CO)CCC[C@@]3(C)[C@@H]2CC1 | Non-Toxic
5 | 35.1 | CC(C)CC(=O)OC[C@H](O)[C@]1(C)C=C2CC[C@H]3[C@@](C)(CCC[C@]3(C)C(=O)O)[C@@H]2CC1 | Non-Toxic
6 | 44 | C=C/C(C)=C\C[C@@H]1C(=C)CC[C@@H]2[C@](C)(CO)CCC[C@@]12C | Non-Toxic
7 | 14.9 | C=C[C@@]1(C)CCC2=C(C1)C(=O)C[C@@H]1[C@](C)(C(=O)O)CCC[C@@]21C | Non-Toxic
8 | 10 | C=C[C@@]1(C)CC=C2[C@@H](CC[C@@H]3[C@](C)(C(=O)O)CCC[C@@]23C)C1=O | Non-Toxic
9 | 11.5 | C=C[C@@]1(C)CCC2=C(CC[C@@H]3[C@](C)(C(=O)O)CCC[C@@]23C)C1=O | Non-Toxic
10 | 69.4 | C[C@@]12CCC[C@@](C)(C(=O)O)[C@H]1CCC1=C[C@@](C)([C@H]3CO3)CC[C@H]12 | Non-Toxic
11 | 10.6 | C=C[C@]1(COC(=O)CC(C)C)C=C2CC[C@H]3[C@@](C)(CCC[C@@]3(C)C(=O)O)[C@@H]2CC1 | Non-Toxic
12 | 17.6 | C=C[C@@]1(C)CC=C2C(CC[C@@H]3[C@](C)(CO)CCC[C@@]23C)C1 (stereo partly drawn) | Non-Toxic
13 | 21.7 | C=C[C@@]1(C)CCC2=C(C1=O)[C@H](O)C[C@@H]1[C@](C)(C(=O)O)CCC[C@@]21C | Non-Toxic
14 | 14.2 | C[C@@]12CCC[C@@](C)(C(=O)O)[C@H]1CC[C@]13C=C(C=O)[C@H](CC[C@H]12)C3 | Non-Toxic
15 | 66.8 | C=C[C@]1(C)C=C2C(=O)C[C@H]3[C@@](C)(CCC[C@@]3(C)C(=O)O)[C@@H]2CC1 | Non-Toxic
16 | 1.1 | C=CCCCCC/C=C\[C@H](O)C#CC#CC(CC)OC(=O)/C=C/c1ccc(O)cc1 (stereo partly drawn) | Non-Toxic
17 | 5.4 | C=C1C[C@@]23CC[C@@H]4[C@](C)(CO)CCC[C@@]4(C)[C@@H]2CC[C@@H]1C3 | Non-Toxic
18 | 25.4 | C=C1[C@@H]2CC[C@H]3[C@]4(C)CCC[C@@](C)(C(=O)O)[C@H]4CC[C@]3(C2)[C@H]1O | Non-Toxic

Row | Structure (SMILES) | IC50 (RAW264.7 [1]) [µM] | Activity (RAW264.7 [2])
19 | C=C[C@H](O)C#CC#C[C@@H](O)/C=C\CCCCCCC | 5.4 | Non-Toxic
20 | C=CCCCCC/C=C\[C@@H](C#CC#C[C@@H](O)CC)OC(C)=O | 2.3 | Non-Toxic
21 | C=CCCCCC/C=C\[C@H](O)C#CC#C[C@@H](O)CC [DENDROARBOREOL A] | 40.5 | Non-Toxic
22 | N=C(N)NN [PIMAGEDINE] | 18.7 | –
